Experimental data taken from patent publication US20090270474A1, “Therapeutic Agent for Keratoconjunctival Disorder” (priority 2005, published 2009).

System: corneal disorder models
Experiment: Test for therapeutic effect on corneal disorder (exorbital lacrimal gland removal model, fluorescein staining score)
Type: in vivo, male SD rats
Method: Using male SD rats, corneal disorder models were produced in accordance with the method of Fujihara et al. (Invest. Opthalmol. Vis. Sci. 42 (1): 96-100 (2001)). After the production of the corneal disorder models, the corneal disorder score was evaluated in accordance with the method of Murakami et al. (Journal of the eye 21 (1): 87-90 (2004)), and the improvement ratio of corneal disorder after instillation of eprosartan mesylate (hereinafter referred to as “Compound A”) was obtained.
As test animals, male SD rats were used, and systemic anesthesia was given to the rats by administration of Nembutal. Subsequently the exorbital lacrimal gland was removed and a corneal disorder was induced over a period of 2 months.
Then, Compound A was administered as follows.
A phosphate-buffered saline solution (PBS solution) containing Compound A (0.1%) was instilled into both eyes 6 times a day for 14 days (instilled amount: 5 μL/dose) (one group consisting of 4 animals, 8 eyes).
In a control group, PBS solution was instilled into both eyes 6 times a day for 14 days (instilled amount: 5 μL/dose) (one group consisting of 4 animals, 8 eyes).
Fourteen days after the start of instillation, the damaged parts of the cornea were stained with fluorescein. For each of the upper, middle and lower parts of the cornea, the degree of fluorescein staining was evaluated by scoring according to the criteria shown below and the improvement ratio of corneal disorder was calculated from the mean value of the total scores for each of the above-mentioned parts.
Also for normal eyes, the mean value of the total scores for each of the above-mentioned parts was obtained. […]
By taking the mean value of the total scores for the control group (PBS solution) as a standard (improvement ratio: 0%) and according to the calculation formula shown below, the improvement ratio in the Compound A instillation group was calculated, which is shown in Table 1. […]

CCCCc1ncc(/C=C(\Cc2cccs2)C(=O)O)n1Cc1ccc(C(=O)O)cc1 [Compound A, (E)-a-[[2-n-butyl-1-[(4-carboxyphenyl)methyl]-1H-imidazol-5-yl]methylene]-2-thiophenepropionic acid monomethanesulfonate]
Improvement ratio (%) (0.1% in PBS instilled 6 times a day for 14 days, {(control)-(Compound A)}/((control)-(normal eye))x100, control = 0%): 84.8% | Improvement of corneal damage (in words) (rats, Table 1, 0.1% instillation for 14 days): significantly improved a corneal damage | Mean value of scores (total fluorescein staining score (upper, middle, lower cornea, each 0-3), 0.1% in PBS instilled into both eyes 6 times a day for 14 days, mean of 8 eyes, control 6.1, normal eye 2.8): 3.3
